Data on one substance can be found in patent US20110275678A1, “New Pyridine Derivatives as Leptin Receptor Modulator Mimetics” (priority 2008, published 2011).

The test system of test [1] is JEG-3 cells. Put plainly: [3H]-thymidine incorporation by JEG-3 cells (leptin assay in non-recombinant system). The format is cell-based. The settings on record: FIG. 5. The text has this: Leptin Assay in Non-Recombinant System The leptin receptor expression in non-recombinant system is often fluctuating and care must be given to identify a system where signal stability remains within experiments. Using such a system, leptin receptor antagonist mimetics could be identified by evaluating is their action vs. leptin (see below). Leptin is produced chiefly in adipose cells, but in humans, mRNA encoding leptin is also present in the placenta. Here, leptin might play an important proliferative role in the microvasculature. The possibility to use this hypothesis in a native cell line was evaluated. JEG-3 Protocol In JEG-3 cells (choriocarcinoma cell line) leptin is able to stimulate proliferation up to 3 fold (Biol. Reprod. (2007) 76: 203-10). […] The radioactivity incorporated by the cells is an index of their proliferative activity and is measured in counts per minute (CPM) with a liquid scintillation beta counter. This finding can be applied to test whether a compound is able to either reproduce the effect of leptin on cell proliferation (leptin receptor agonist mimetic) (i.e., a given compound will cause an increase in incorporated [^3H]-Thymidine by the cells) or to inhibit the effect of leptin (antagonistic effect) by preventing the leptin-mediated increase in [^3H]-thymidine incorporation. […]
In general terms: Incorporation of labelled thymidine or its analogues reports DNA synthesis.

The subject of test [2] is JEG-3 cells. The following applies: Biol. Reprod. (2007) 76: 203-10; cited from earlier work.

“leptin: a hormone synthesized in fat cells that is believed to act in the hypothalamus to reduce food intake and body weight”: in the test with JEG-3 cells [1] (JEG-3 cells (choriocarcinoma cell line), read-out: EC50, increase in [3H]-thymidine incorporation), the EC50 was determined as 2.1 nM. The “concentration of maximal effect on [3H]-thymidine incorporation” value in the test with JEG-3 cells [1] (JEG-3 cells) worked out at 100 nM. In addition, in the test on JEG-3 cells [2], the stimulation of proliferation entry is “up to 3 fold”.
